In US20240400986A1, “MEMBRANE BOUND COMPOSITIONS AND METHODS RELATING TO SAME” (FLAGSHIP PIONEERING INNOVATIONS VII, LLC, priority 2021, published 2024):
Where two headings read alike, the source gives them in different places.

How the values were obtained:
[1] = system: neuronal cell line derived from human neuroblastoma
Description: For the screening, a total of 99 compounds (TargetMol) were divided in 5 groups. Each group included an untreated condition, a vehicular DMSO control, and a known high-gigasome producing condition to comparatively study gigasome production rates. As a cell death control group, 500 nM Staurosporine was added to induce apoptosis. Cultures were incubated for 24 hours under gigasome inducing conditions at concentrations ranging between 10 nM and 10,000 nM. Before the end of the treatment, live neuronal cultures were imaged. The Zeiss ZEN Blue software was used to distribute imaging fields of view (positions) to create an unbiased imaging sample of a well. 5 images were taken using a Zeiss LSM 900 confocal microscope. […] The BioApps ZEN software package was used to perform cell nucleus segmentation and counting. After 24 hours, gigasomes were harvested from the cell culture media by gently removing from the top of each 96-well ⅔ of the total volume without disturbing the cell layer (containing the settled gigasomes) and by adding to each well the same amount of PBS. […] Cells remaining in the 96-well plates were assessed for viability using CellTiter-Glo (Promega).

[2] = system: neuronal cell line derived from human neuroblastoma; test: Small molecule compound screen of gigasome production in neuronal monocultures; details: for Fold Change of Gigasomes Produced vs. DMSO / Number of Gigasomes Produced / downregulation of gigasome production: neuronal cells; for Fold Change of Gigasomes Produced vs. DMSO / Number of Gigasomes Produced: 24 hours; for fold induction at 0.01 µM / fold induction at 0.1 µM / fold induction at 1 µM / fold induction at 10 µM: Homo sapiens, read-out: Fold Change of Gigasomes Produced vs. DMSO; for fold induction at 0.01 µM / fold induction at 0.1 µM / fold induction at 1 µM / downregulation of gigasome production / fold induction at 10 µM: 24 h; for downregulation of gigasome production: doses 10-10,000 nM
Excerpt: To quantify and characterize gigasome production using microscopy, while tracking cell viability/phenotype, a multi-readout system was developed that allowed simultaneous analysis of gigasomes harvested from cell culture media supernatants and respective gigasome producing cell viability. […] For the screening, a total of 99 compounds (TargetMol) were divided in 5 groups. Each group included an untreated condition, a vehicular DMSO control, and a known high-gigasome producing condition to comparatively study gigasome production rates. As a cell death control group, 500 nM Staurosporine was added to induce apoptosis. Cultures were incubated for 24 hours under gigasome inducing conditions at concentrations ranging between 10 nM and 10,000 nM. Before the end of the treatment, live neuronal cultures were imaged. The Zeiss ZEN Blue software was used to distribute imaging fields of view (positions) to create an unbiased imaging sample of a well. 5 images were taken using a Zeiss LSM 900 confocal microscope. […] The BioApps ZEN software package was used to perform cell nucleus segmentation and counting. After 24 hours, gigasomes were harvested from the cell culture media by gently removing from the top of each 96-well ⅔ of the total volume without disturbing the cell layer (containing the settled gigasomes) and by adding to each well the same amount of PBS. The wells were washed twice gently, and the gigasome-containing media/PBS wash was transferred into the well of a 384-well glass bottom plate. Cells remaining in the 96-well plates were assessed for viability using CellTiter-Glo (Promega).
For gigasome analysis in 384-well plates, the Zeiss ZEN Blue software was used to distribute positions to create an unbiased imaging sample of a well. 6 images per well were taken using a Zeiss LSM 900 confocal microscope.
A watershed binary segmentation step was performed to separate grouped objects. For each particle in the mask, characteristic parameters of the particle were calculated and saved.
Particles of interest were identified by thresholding by area and circularity. […] Circularity, defined by the formula 4pi(area/perimeter^2, was set to be between 0.8 and 1, where a value of 1.0 is a perfect circle, and a value of 0 is a line. Gigasomes were identified from the particles of interest by thresholding by mean nuclear signal. The nuclear signal threshold was set using a value equal to one fourth of a threshold value calculated by the Li auto-threshold algorithm applied to the distribution of all particles of interest. Particles of interest with nuclear signal below this value were considered “negative” for nuclear material and were identified as gigasomes. A sampling factor was calculated to extrapolate the total quantity of a type of object (particles, particles of interest, gigasomes) in the well. The sampling factor was the percentage of the well's area that was imaged. […] The normalized quantity or distribution of objects was described as a quantity or distribution of objects per 1000 cells.

[3] = system: cardiomyocytic cell line derived from human ventricular heart tissue; test: Small molecule compound screen of gigasome production in cardiomyocytic monocultures; details: Table 23 (down-regulators), cardiomyocytes;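 further: gigasomes shed into the culture medium were imaged by confocal microscopy and counted as round particles lacking nuclear signal, extrapolated to the whole well, fold change is relative to DMSO vehicle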
Description: For the screening, a total of 100 randomly organized compounds (TargetMol) were divided in 5 groups. Each group included an untreated condition, a vehicular DMSO control, and a known high-gigasome producing condition to comparatively study gigasome production rates. As a cell death control group, 500 nM Staurosporine was added to induce apoptosis. Cultures were incubated for 24 hours under gigasome inducing conditions at concentrations ranging between 10 nM and 10,000 nM. […] The Zeiss ZEN Blue software was used to distribute imaging fields of view (positions) to create an unbiased imaging sample of a well. 5 images were taken using a Zeiss LSM 900 confocal microscope. […] The BioApps ZEN software package was used to perform cell nucleus segmentation and counting. After 24 hours, gigasomes were harvested from the cell culture media by gently removing from the top of each 96-well ⅔ of the total volume without disturbing the cell layer (containing the settled gigasomes) and by adding to each well the same amount of PBS containing 0.5 mM EDTA. The wells were washed twice gently, and the gigasome-containing media/0.5 mM EDTA PBS wash was transferred into the well of a 384-well glass bottom plate. Cells remaining in the 96-well plates were assessed for viability using CellTiter-Glo (Promega).
For gigasome analysis in 384-well plates, the Zeiss ZEN Blue software was used to distribute positions to create an unbiased imaging sample of a well. 6 images per well were taken using a Zeiss LSM 900 confocal microscope. […] A watershed binary segmentation step was performed to separate grouped objects. For each particle in the mask, characteristic parameters of the particle were calculated and saved. […] Particles of interest were identified by thresholding by area and circularity. […] Circularity, defined by the formula 4pi(area/perimeter^2, was set to be between 0.8, where a value of 1.0 is a perfect circle, and a value of 0 is a line. Gigasomes were identified from the particles of interest by thresholding by mean nuclear signal. The nuclear signal threshold was set using a value equal to one quarter of a threshold value calculated by the Li auto-threshold algorithm applied to the distribution of all particles of interest. Particles of interest with nuclear signal below this value were considered “negative” for nuclear material and were identified as gigasomes. A sampling factor was calculated to extrapolate the total quantity of a type of object (particles, particles of interest, gigasomes) in the well. The sampling factor was the percentage of the well's area that was imaged. […] In some experiments, the number of cells in the cell cultures were estimated with a cell counter. […] The normalized quantity or distribution of objects was described as a quantity or distribution of objects per 1000 cells.

[4] = neuronal cells, dose 1000 nM, 24 hours
[5] = neuronal cells, dose 10 nM, 24 hours
[6] = neuronal cells, dose 100 nM, 24 hours
[7] = neuronal cells, dose 10000 nM, 24 hours

| Structure (SMILES) | Viability [1, 4] | Fold Change of Gigasomes Produced vs. DMSO ([2]; dose 1000 nM) | Number of Gigasomes Produced ([2]; dose 1000 nM) | fold induction at 0.01 µM [2] | fold induction at 0.1 µM [2] | fold induction at 1 µM [2] | Number of Gigasomes Produced ([2]; dose 10 nM) | Number of Gigasomes Produced ([2]; dose 100 nM) | Viability [1, 5] | Viability [1, 6] | Viability [1, 7] | Number of Gigasomes Produced ([2]; dose 10000 nM) | fold induction at 10 µM [2] | other results |
| --- | --- | --- | --- | --- | --- | --- | --- | --- | --- | --- | --- | --- | --- | --- |
| CC(/C=C/C(=O)NO)=C\[C@@H](C)C(=O)c1ccc(N(C)C)cc1 [Trichostatin A] | 50-75% | 1.75-2.0 | 55-65 |  |  |  |  |  |  |  |  |  |  |  |
| Cc1ncc(-c2ccnc(Nc3ccc(S(C)(=O)=O)cc3)n2)n1C(C)C [AZD-5438] |  |  | 35-45 | 1.5 to 1.75 | 1.25 to 1.5 | 1 to 1.25 | 45-55 | 35-45 |  |  |  |  |  | Viability ([1]; human, 24 h, 10 nM): 100%; Viability ([1]; human, 24 h, 100 nM): 100%; Viability ([1]; human, 24 h, 1000 nM): 100% |
| COC(=O)c1ccccc1NC(=O)c1ccc(F)cc1 [EXO1, reference compound] | 100% | 0.25-0.5 | 10-15 |  |  |  | 35-40 | 20-25 | 100% | 100% | 100% | 10-15 |  | Fold Change of Gigasomes Produced vs. DMSO ([2]; dose 10 nM): 0.75-1.0; Fold Change of Gigasomes Produced vs. DMSO ([2]; dose 100 nM): 0.5-0.75; Fold Change of Gigasomes Produced vs. DMSO ([2]; dose 10000 nM): 0.25-0.5; downregulation of gigasome production [2]: dose-dependent downregulation |
| CN[C@H](CC(=O)O)C(=O)O [NMDA, reference compound] | 100% | 0.5-0.75 | 20-25 |  |  |  | 30-35 | 30-35 | 100% | 100% | 100% | 15-20 |  | Fold Change of Gigasomes Produced vs. DMSO ([2]; dose 10 nM): 0.75-1.0; Fold Change of Gigasomes Produced vs. DMSO ([2]; dose 100 nM): 0.75-1.0; Fold Change of Gigasomes Produced vs. DMSO ([2]; dose 10000 nM): 0.25-0.5; downregulation of gigasome production [2]: dose-dependent downregulation |
| CCN(CCO)CCCC(C)Nc1ccnc2cc(Cl)ccc12 (stereo not shown) [Hydroxychloroquine] | >75% |  | 25-30 | 1 to 1.25 | 0.75 to 1 | 0.75 to 1 | 30-35 | 20-25 | 100% | 100% | >75% | 20-25 | 0.75 to 1 |  |
| COC(=O)C1=C(C)NC(C)=C([N+](=O)[O-])C1c1ccccc1C(F)(F)F (stereo not shown) [Bay K 8644] |  | 1.25-1.5 | 35-45 |  |  |  | 35-45 | 35-45 |  |  |  |  |  | Fold Change of Gigasomes Produced vs. DMSO ([2]; dose 10 nM): 1.25-1.5; Fold Change of Gigasomes Produced vs. DMSO ([2]; dose 100 nM): 1.25-1.5; Fold Change of Gigasomes Produced vs. DMSO ([3]; dose 10 nM): 0.75-1.0; Number of Gigasomes Produced ([3]; dose 10 nM): >150; Fold Change of Gigasomes Produced vs. DMSO ([3]; dose 100 nM): 0.5-0.75; Number of Gigasomes Produced ([3]; dose 100 nM): 120-135; Fold Change of Gigasomes Produced vs. DMSO ([3]; dose 1000 nM): 0.75-1.0; Number of Gigasomes Produced ([3]; dose 1000 nM): 105-120; Fold Change of Gigasomes Produced vs. DMSO ([3]; dose 10000 nM): 0.25-0.5; Number of Gigasomes Produced ([3]; dose 10000 nM): 75-90 |
| CN1C(=N)N[C@](C)(c2cc(NC(=O)c3ccc(F)cn3)ccc2F)CS1(=O)=O [Verubecestat] | 100% |  | 20-25 | 0.75 to 1 | 0.5 to 0.75 | 0.5 to 0.75 | 35-40 | 25-30 | 100% | 100% | 100% | 20-25 | 0.5 to 0.75 |  |
| CC1=NS(=O)(=O)c2cc(Cl)ccc2N1 [Diazoxide] |  |  | 35-45 |  | 1.5 to 1.75 | 1.25 to 1.5 |  | 45-55 |  |  |  | 35-45 | 1 to 1.25 | Viability ([1]; human, 24 h, 100 nM): 100%; Viability ([1]; human, 24 h, 1000 nM): 100%; Viability ([1]; human, 24 h, 10000 nM): 100% |
| CC(C)[C@H](O)C(=O)N[C@@H](C)C(=O)N[C@@H]1C(=O)N(C)CCc2ccccc21 [Semagacestat] | 100% |  | 20-25 | 0.75 to 1 | 0.75 to 1 | 0.5 to 0.75 | >40 | 35-40 | 100% | 100% | 100% | 20-25 | 0.5 to 0.75 |  |
| C=C(C)[C@@H]1CC[C@]2(C(=O)O)CC[C@]3(C)[C@H](CC[C@@H]4[C@@]5(C)CC[C@H](O)C(C)(C)[C@@H]5CC[C@]43C)[C@@H]12 [Betulinic acid] |  |  |  | 0.5 to 0.75 | 1.25 to 1.5 |  | <35 | 55-65 |  |  |  | 55-65 | 1.5 to 1.75 | Viability ([1]; human, 24 h, 10 nM): 100%; Viability ([1]; human, 24 h, 100 nM): 100%; Viability ([1]; human, 24 h, 10000 nM): 100% |
| COC(=O)c1ccc([C@@H]2c3[nH]c4ccccc4c3C[C@@H](C(=O)OC)N2C(=O)CCl)cc1 [RSL3, reference compound] | >75% | 2.0-3.0 | 55-65 |  |  |  |  |  |  |  |  |  |  |  |
